From the supplement of paper PMC11061612

Experiments:
[1] = tested on: SW837 (Colorectal Carcinoma); assay: combination Emax (second highest fraction inhibited in the dose matrix, 72 h); higher = more inhibition; extreme values may be limits of the assay
Summary of the method: (§1)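 Cell lines grown in DMEM/F12 or RPMI with 10% FBS were plated in 1536-well plates and held 24 hours at 37°C, 5% CO2 before 72 hours of exposure to two-drug dose matrices, with DMSO typically at 0.2%. CellTiter-Glo 2.0 luminescence gave viability, which was converted to inhibition. Vehicle wells were set to 0 and blank wells to 1. Combination Emax is the second-highest inhibition in the matrix, and Bliss excess is the observed combination effect minus the expected EA + EB − EA·EB, where EA and EB are the single-agent effects.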

[2] = tested on: L-540 (Hodgkin's Lymphoma); assay: as above
Summary of the method: as §1

U251 (Low Grade Glioma) [3] = assay: as above
Summary of the method: as §1

TC-71 (Ewing's Sarcoma) [4] = assay: as above
Summary of the method: as §1

[5] = tested on: BFTC-905 (Bladder Carcinoma); assay: as above
Summary of the method: as §1

WM-115 (Melanoma) [6] = assay: as above
Summary of the method: as §1

[7] = tested on: BL-41 (Burkitt's Lymphoma); assay: as above
Summary of the method: as §1

WIL2-NS (Non-Cancerous) [8] = assay: as above
Summary of the method: as §1

[9] = tested on: TE-6 (Esophageal Squamous Cell Carcinoma); assay: as above
Summary of the method: as §1

[10] = tested on: K-562 (Chronic Myelogenous Leukemia); assay: as above
Summary of the method: as §1

[11] = tested on: GR-ST (B-Lymphoblastic Leukemia); assay: as above
Summary of the method: as §1

[12] = tested on: SW1417 (Colorectal Carcinoma); assay: as above
Summary of the method: as §1

[13] = tested on: NCI-H1792 (Lung Adenocarcinoma); assay: as above
Summary of the method: as §1

[14] = tested on: MKN28 (Gastric Carcinoma); assay: as above
Summary of the method: as §1

[15] = tested on: CAMA-1 (Breast Carcinoma); assay: as above
Summary of the method: as §1

ES1 (Ewing's Sarcoma) [16] = assay: as above
Summary of the method: as §1

NCI-H2818 (Mesothelioma) [17] = assay: as above
Summary of the method: as §1

[18] = tested on: DND-41 (T-Lymphoblastic Leukemia); assay: as above
Summary of the method: as §1

[19] = tested on: SR (Other Blood Carcinomas); assay: as above
Summary of the method: as §1

ES8 (Ewing's Sarcoma) [20] = assay: as above
Summary of the method: as §1

[21] = tested on: SW837 (Colorectal Carcinoma); assay: Bliss excess, mean over the matrix (fraction); higher = more synergy
Summary of the method: as §1

[22] = tested on: L-540 (Hodgkin's Lymphoma); assay: as above
Summary of the method: as §1

U251 (Low Grade Glioma) [23] = assay: as above
Summary of the method: as §1

TC-71 (Ewing's Sarcoma) [24] = assay: as above
Summary of the method: as §1

[25] = tested on: BFTC-905 (Bladder Carcinoma); assay: as above
Summary of the method: as §1

WM-115 (Melanoma) [26] = assay: as above
Summary of the method: as §1

[27] = tested on: BL-41 (Burkitt's Lymphoma); assay: as above
Summary of the method: as §1

WIL2-NS (Non-Cancerous) [28] = assay: as above
Summary of the method: as §1

[29] = tested on: TE-6 (Esophageal Squamous Cell Carcinoma); assay: as above
Summary of the method: as §1

[30] = tested on: K-562 (Chronic Myelogenous Leukemia); assay: as above
Summary of the method: as §1

[31] = tested on: GR-ST (B-Lymphoblastic Leukemia); assay: as above
Summary of the method: as §1

[32] = tested on: SW1417 (Colorectal Carcinoma); assay: as above
Summary of the method: as §1

[33] = tested on: NCI-H1792 (Lung Adenocarcinoma); assay: as above
Summary of the method: as §1

[34] = tested on: MKN28 (Gastric Carcinoma); assay: as above
Summary of the method: as §1

[35] = tested on: CAMA-1 (Breast Carcinoma); assay: as above
Summary of the method: as §1

ES1 (Ewing's Sarcoma) [36] = assay: as above
Summary of the method: as §1

NCI-H2818 (Mesothelioma) [37] = assay: as above
Summary of the method: as §1

[38] = tested on: DND-41 (T-Lymphoblastic Leukemia); assay: as above
Summary of the method: as §1

[39] = tested on: SR (Other Blood Carcinomas); assay: as above
Summary of the method: as §1

ES8 (Ewing's Sarcoma) [40] = assay: as above
Summary of the method: as §1
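For Bliss excess, mean over the matrix in this document: after 72 h of two-drug dosing.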

With `CS(=O)(=O)CCNCc1ccc(-c2ccc3ncnc(Nc4ccc(OCc5cccc(F)c5)c(Cl)c4)c3c2)o1` [Lapatinib] + NC1(c2ccc(-c3nc4ccn5c(=O)[nH]nc5c4cc3-c3ccccc3)cc2)CCC1 [MK-2206] (first compound max 10 µM, 7x7, partner max 10 µM) the “combination Emax” value [1] was 0.633, the “combination Emax” value [2] was 0.918 and the “combination Emax” value (U251 (Low Grade Glioma) [3]) was 0.454. For the same compound, the “combination Emax” value (TC-71 (Ewing's Sarcoma) [4]) was 0.589, the “combination Emax” value [5] was 0.888 and the “combination Emax” value (WM-115 (Melanoma) [6]) was 0.855. The “combination Emax” value [7] was 0.942, the “combination Emax” value (WIL2-NS (Non-Cancerous) [8]) was 0.674 and the “combination Emax” value [9] was 0.816. For the same compound, the “combination Emax” value [10] was 0.602, the “combination Emax” value [11] was 0.981 and the “combination Emax” value [12] was 0.459. For the same compound, the “combination Emax” value [13] was 0.785, the “combination Emax” value [14] was 0.687 and the “combination Emax” value [15] was 0.909. The “combination Emax” value (ES1 (Ewing's Sarcoma) [16]) was 0.97, the “combination Emax” value (NCI-H2818 (Mesothelioma) [17]) was 0.351 and the “combination Emax” value [18] was 0.946. For the same compound, the “combination Emax” value [19] was 0.819, the “combination Emax” value (ES8 (Ewing's Sarcoma) [20]) was 0.851 and the Bliss excess [21] was 0.0106. The Bliss excess [22] was -0.0209, the Bliss excess (U251 (Low Grade Glioma) [23]) was -0.0083 and the Bliss excess (TC-71 (Ewing's Sarcoma) [24]) was -0.0342. For the same compound, the Bliss excess [25] was 0.0323, the Bliss excess (WM-115 (Melanoma) [26]) was -0.0093 and the Bliss excess [27] was 0.0176. For the same compound, the Bliss excess (WIL2-NS (Non-Cancerous) [28]) was 0.0569, the Bliss excess [29] was -0.0159 and the Bliss excess [30] was -0.0367. The Bliss excess [31] was -0.0298, the Bliss excess [32] was 0.0395 and the Bliss excess [33] was 0.0243. For the same compound, the Bliss excess [34] was -0.0445, the Bliss excess [35] was 0.0301 and the Bliss excess (ES1 (Ewing's Sarcoma) [36]) was 0.0341. It also gave a Bliss excess (NCI-H2818 (Mesothelioma) [37]) of -0.0155, a Bliss excess [38] of 0.0377 and a Bliss excess [39] of 0.0147. It also gave a Bliss excess (ES8 (Ewing's Sarcoma) [40]) of -0.004.
With `C[C@@H]1COCCN1c1cc(C2([S@](C)(=N)=O)CC2)nc(-c2ccnc3[nH]ccc23)n1` [AZD6738] + Nc1ccn([C@@H]2O[C@H](CO)[C@@H](O)C2(F)F)c(=O)n1 [Gemcitabine] (first compound max 10 µM, 7x7, partner max 0.3 µM) the “combination Emax” value [1] was 0.779, the “combination Emax” value [2] was 0.963 and the “combination Emax” value [5] was 0.915. The “combination Emax” value (WM-115 (Melanoma) [6]) was 0.659, the “combination Emax” value [7] was 1 and the “combination Emax” value (WIL2-NS (Non-Cancerous) [8]) was 0.985. For the same compound, the “combination Emax” value [10] was 0.916, the “combination Emax” value [11] was 0.889 and the “combination Emax” value [12] was 0.77. For the same compound, the “combination Emax” value [13] was 0.951, the “combination Emax” value [14] was 0.664 and the “combination Emax” value [15] was 0.587. The “combination Emax” value (ES1 (Ewing's Sarcoma) [16]) was 1, the “combination Emax” value (NCI-H2818 (Mesothelioma) [17]) was 0.545 and the “combination Emax” value [18] was 0.921. For the same compound, the “combination Emax” value [19] was 1, the “combination Emax” value (ES8 (Ewing's Sarcoma) [20]) was 1 and the Bliss excess [21] was 0.065. For the same compound, the Bliss excess [22] was -0.0107, the Bliss excess [25] was 0.0387 and the Bliss excess (WM-115 (Melanoma) [26]) was 0.0268. It also gave a Bliss excess [27] of -0.0007, a Bliss excess (WIL2-NS (Non-Cancerous) [28]) of 0.0093 and a Bliss excess [30] of 0.0537. It also gave a Bliss excess [31] of 0.0085, a Bliss excess [32] of 0.0802 and a Bliss excess [33] of 0.0362. The Bliss excess [34] was 0.0907, the Bliss excess [35] was 0.0878 and the Bliss excess (ES1 (Ewing's Sarcoma) [36]) was 0.0203. For the same compound, the Bliss excess (NCI-H2818 (Mesothelioma) [37]) was 0.0515, the Bliss excess [38] was 0.0586 and the Bliss excess [39] was 0.0532. For the same compound, the Bliss excess (ES8 (Ewing's Sarcoma) [40]) was 0.0265.
For `N#Cc1cnc(Nc2cc(NC[C@H]3CNCCO3)c(C(F)(F)F)cn2)cn1` [SRA737] + O=c1[nH]cc(F)c(=O)[nH]1 [5-Fluorouracil] (first compound max 10 µM, 7x7, partner max 20 µM), the “combination Emax” value [1] was 0.497, the “combination Emax” value [2] was 0.936 and the “combination Emax” value [5] was 0.278. The “combination Emax” value (WM-115 (Melanoma) [6]) was 0.255, the “combination Emax” value [7] was 1 and the “combination Emax” value (WIL2-NS (Non-Cancerous) [8]) was 0.957. The “combination Emax” value [10] was 0.893, the “combination Emax” value [11] was 0.817 and the “combination Emax” value [12] was 0.238. For the same compound, the “combination Emax” value [13] was 0.84, the “combination Emax” value [14] was 0.381 and the “combination Emax” value [15] was 0.314. The “combination Emax” value (ES1 (Ewing's Sarcoma) [16]) was 0.982, the “combination Emax” value (NCI-H2818 (Mesothelioma) [17]) was 0.239 and the “combination Emax” value [18] was 0.946. For the same compound, the “combination Emax” value [19] was 0.959, the “combination Emax” value (ES8 (Ewing's Sarcoma) [20]) was 0.611 and the Bliss excess [21] was 0.0162. For the same compound, the Bliss excess [22] was -0.0581, the Bliss excess [25] was 0.0197 and the Bliss excess (WM-115 (Melanoma) [26]) was -0.0753. For the same compound, the Bliss excess [27] was 0.0042, the Bliss excess (WIL2-NS (Non-Cancerous) [28]) was 0.0182 and the Bliss excess [30] was -0.0202. The Bliss excess [31] was -0.0636, the Bliss excess [32] was 0.0018 and the Bliss excess [33] was 0.0523. For the same compound, the Bliss excess [34] was 0.0222, the Bliss excess [35] was 0.0209 and the Bliss excess (ES1 (Ewing's Sarcoma) [36]) was 0.0525. The Bliss excess (NCI-H2818 (Mesothelioma) [37]) was -0.0232, the Bliss excess [38] was 0.0434 and the Bliss excess [39] was -0.0128. For the same compound, the Bliss excess (ES8 (Ewing's Sarcoma) [40]) was 0.0404.
